Laboratory results: patent US12319664B2, “Herbicidally active 3-phenylisoxazoline-5-carboxamides of cyclopentenylcarboxylic acid derivatives” (Bayer Aktiengesellschaft, priority 2018, dated 2025)

Columns and labels:
ECHCG = assay: Post-emergence herbicidal action against ECHCG; type: in vivo, Echinochloa crus-galli; conditions: application rate 80 g/ha, rated visually after about 3 weeks
Procedure, shortened: (§1)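 Greenhouse post-emergence test: compound sprayed onto green plant parts at one-leaf stage as WP or EC preparation with 0.5% additive, water rate 600 l/ha. Percent activity scored by eye after roughly 3 weeks, where 0% matches controls and 100% means death.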

HORMU = assay: Post-emergence herbicidal action against HORMU; type: in vivo, Hordeum murinum; conditions: application rate 80 g/ha
Procedure, shortened: as §1

AVEFA = assay: Post-emergence herbicidal action against AVEFA; type: in vivo, Avena fatua; conditions: application rate 80 g/ha, rated visually after about 3 weeks
Procedure, shortened: as §1

VIOTR = assay: Post-emergence herbicidal action against VIOTR; type: in vivo, Viola tricolor; conditions: application rate 80 g/ha, rated visually about 3 weeks after treatment
Procedure, shortened: as §1

PHBPU = assay: Post-emergence herbicidal action against PHBPU; type: in vivo, Pharbitis purpurea; conditions: application rate 80 g/ha, rated visually about 3 weeks after treatment
Procedure, shortened: as §1

SETVI = assay: Post-emergence herbicidal action against SETVI; type: in vivo, Setaria viridis; conditions: application rate 80 g/ha, rated visually after about 3 weeks
Procedure, shortened: as §1

VERPE = assay: Post-emergence herbicidal action against VERPE; type: in vivo, Veronica persica; conditions: application rate 80 g/ha
Procedure, shortened: as §1

ALOMY = assay: Post-emergence herbicidal action against ALOMY; type: in vivo, Alopecurus myosuroides; conditions: application rate 80 g/ha, rated visually after about 3 weeks
Procedure, shortened: as §1

STEME = assay: Post-emergence herbicidal action against STEME; type: in vivo, Stellaria media; conditions: application rate 80 g/ha, rated visually about 3 weeks after treatment
Procedure, shortened: as §1

POLCO = assay: Post-emergence herbicidal action against POLCO; type: in vivo, Polygonum convolvulus; conditions: application rate 80 g/ha, rated visually about 3 weeks after treatment
Procedure, shortened: as §1

AMARE = assay: Post-emergence herbicidal action against AMARE; type: in vivo, Amaranthus retroflexus; conditions: application rate 80 g/ha, rated visually about 3 weeks after treatment
Procedure, shortened: as §1

ABUTH = assay: Post-emergence herbicidal action against ABUTH; type: in vivo, Abutilon theophrasti; conditions: application rate 80 g/ha, rated visually about 3 weeks after treatment
Procedure, shortened: as §1

LOLRI = assay: Post-emergence herbicidal action against LOLRI; type: in vivo, Lolium rigidum; conditions: application rate 80 g/ha, rated visually after about 3 weeks
Procedure, shortened: as §1

SMILES | Herbicidal action against [%] ECHCG (ECHCG) [%] | Herbicidal action against [%] HORMU (HORMU) [%] | Herbicidal action against [%] AVEFA (AVEFA) [%] | Herbicidal action against [%] VIOTR (VIOTR) [%] | Herbicidal action against [%] PHBPU (PHBPU) [%] | Herbicidal action against [%] SETVI (SETVI) [%] | Herbicidal action against [%] VERPE (VERPE) [%] | Herbicidal action against [%] ALOMY (ALOMY) [%] | Herbicidal action against [%] STEME (STEME) [%] | Herbicidal action against [%] POLCO (POLCO) [%] | Herbicidal action against [%] AMARE (AMARE) [%] | Herbicidal action against [%] ABUTH (ABUTH) [%] | Herbicidal action against [%] LOLRI (LOLRI) [%]
CC1(C(=O)NC2C=CC(C(=O)OCCCl)C2)CC(c2cc(F)cc(C#N)c2)=NO1 (mixture of isomers) [Example I-083] | 90 | 100 | 100 | 90 | 90 | 80 | 90 | 100 | 90 | 90 | 90 | 90 | 100
CCOC(=O)C1=CC[C@H](NC(=O)C2(C)CC(c3cc(F)cc(F)c3)=NO2)C1 (some centres unmarked) [III-07] | 90 | 80 | 90 | 90 | 80 | 90 | 90 | 90 | 90 | 80 | 90 | 80 | 90
COC(=O)C1C=CC(NC(=O)C2(C)CC(c3cc(F)cc(C#N)c3)=NO2)C1 (mixture of isomers) [Example I-084] | 90 | 100 | 100 | 90 | 90 | 90 | 90 | 100 | 100 | 90 | 90 | 90 | 100
N#Cc1cc(F)cc(C2=NOC(C(=O)N[C@H]3C=C[C@@H](C(=O)OCC(F)(F)F)C3)(C(F)(F)F)C2)c1 (some centres unmarked) [Example I-096] | 80 | 100 | 100 | 90 | 90 | 80 | 90 | 100 | 90 | 90 | 90 | 90 | 100
N#Cc1cccc(C2=NOC(C(=O)NC3C=CC(C(=O)O)C3)(C(F)(F)F)C2)c1 (mixture of isomers) [Example I-085] | 90 | 100 | 100 | 80 | 90 | 80 | 90 | 90 | 80 | 80 | 90 | 90 | 100
COCCOC(=O)C1C=CC(NC(=O)C2(C)CC(c3cc(F)cc(C#N)c3)=NO2)C1 (mixture of isomers) [Example I-082] | 90 | 100 | 100 | 90 | 90 | 90 | 90 | 100 | 90 | 90 | 90 | 90 | 100
N#Cc1cc(F)cc(C2=NOC(C(=O)NC3C=CC(C(=O)O)C3)(C(F)(F)F)C2)c1 (mixture of isomers) [Example I-090] | 80 | 100 | 100 | 90 | 90 | 90 | 90 | 100 | 90 | 90 | 90 | 90 | 100
C=CC1(C(=O)N[C@H]2CC=C(C(=O)O)C2)CC(c2cc(F)cc(F)c2)=NO1 (some centres unmarked) [III-09] | 90 | 100 | 100 | 90 | 90 | 80 | 90 | 90 | 90 | 90 | 90 | 80 | 100
COC(=O)C1C=CC(NC(=O)C2(C(F)(F)F)CC(c3cccc(C#N)c3)=NO2)C1 (mixture of isomers) [Example I-087] | 80 | 100 | 100 | 90 | 90 | 80 | 90 | 100 | 90 | 90 | 90 | 90 | 100
C=CC1(C(=O)N[C@H]2CC=C(C(=O)OC)C2)CC(c2cc(F)cc(F)c2)=NO1 (some centres unmarked) [III-08] | 90 | 100 | 100 | 80 | 80 | 90 | 90 | 90 | 90 | 80 | 80 | 80 | 90
C=CC1(C(=O)N[C@H]2CC=C(C(=O)OCC)C2)CC(c2cc(F)cc(F)c2)=NO1 (some centres unmarked) [III-17] | 80 | 90 | 90 | 80 | 90 | 80 | 90 | 100 | 90 | 80 | 90 | 80 | 90
